Data on 26 compounds can be found in patent US7851474B2, “Dipiperazinyl ketones and related analogues” (Neurogen Corporation, priority 2005, dated 2010).

The target of the first assay is T1, chimeric human H3 receptor (Homo sapiens, UniProt Q9Y5N1, E19D).
T1 construct: made in house; host or cells: Sf9 insect cells (baculovirus infection); P2 membrane preparation
T1 sequence (Q9Y5N1 with tags, fused parts or gaps E19D): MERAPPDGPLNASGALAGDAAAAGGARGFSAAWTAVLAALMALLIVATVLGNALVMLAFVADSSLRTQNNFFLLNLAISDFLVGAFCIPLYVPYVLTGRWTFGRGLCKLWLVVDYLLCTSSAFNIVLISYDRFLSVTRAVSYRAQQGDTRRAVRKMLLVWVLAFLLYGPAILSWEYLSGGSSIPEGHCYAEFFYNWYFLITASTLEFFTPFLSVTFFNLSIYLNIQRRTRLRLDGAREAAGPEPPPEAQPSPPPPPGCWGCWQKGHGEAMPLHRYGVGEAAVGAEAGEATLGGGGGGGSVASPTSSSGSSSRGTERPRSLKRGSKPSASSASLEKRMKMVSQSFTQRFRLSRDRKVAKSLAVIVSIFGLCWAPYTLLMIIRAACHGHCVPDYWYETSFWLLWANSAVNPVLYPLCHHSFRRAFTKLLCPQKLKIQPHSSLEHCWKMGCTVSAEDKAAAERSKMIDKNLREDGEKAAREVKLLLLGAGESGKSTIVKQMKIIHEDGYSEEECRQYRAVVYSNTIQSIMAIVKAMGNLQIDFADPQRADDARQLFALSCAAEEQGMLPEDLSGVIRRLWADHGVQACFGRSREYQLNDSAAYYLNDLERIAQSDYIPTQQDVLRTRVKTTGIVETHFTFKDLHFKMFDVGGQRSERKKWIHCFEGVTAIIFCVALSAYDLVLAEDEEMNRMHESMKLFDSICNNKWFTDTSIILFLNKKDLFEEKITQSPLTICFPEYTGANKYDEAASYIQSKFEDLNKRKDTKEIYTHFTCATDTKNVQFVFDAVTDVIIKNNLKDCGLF
The experiment in a line: Chimeric human H3 receptor GTP binding assay (agonist-stimulated GTP-gamma35S binding, Example 7). In kind it is biochemical.
Conditions: not given
Summed up:
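Sf9 membranes co-expressing the chimeric receptor and heterotrimeric G-protein subunits, 35 μg protein per tube, in pH 7.4 Tris buffer with 10 μM GDP. Test compounds at 10^−10 to 10^−6 M with 1 μM histamine, 60 min at room temperature. Filter-bound GTP-gamma^35S read by scintillation; IC50 from non-linear regression of dose-response curves.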
For orientation: GTPγS resists hydrolysis and so accumulates on activated G proteins.
For orientation: Ki means the dissociation constant of the complex between target and ligand, obtained from inhibition or displacement. As for `CC(=O)C1(c2ccccc2)CCN(CC(=O)N2CCN(C3CCC3)CC2)CC1` [Compound 478, 1-{1-[2-(4-cyclobutylpiperazin-1-yl)-2-oxoethyl]-4-phenylpiperidin-4-yl}ethanone], the Ki was < 1000 nM.

Staying with this assay, now noted: "*" in Ki of Table II; assay of Example 7; read-out: Ki.
In the case of `COc1ccccc1CC(=O)N1CCN(CC(=O)N2CCN(C3CCC3)CC2)CC1` [Compound 536, 1-cyclobutyl-4-({4-[(2-methoxyphenyl)acetyl]piperazin-1-yl}acetyl)piperazine], the Ki is < 1000 nM.

Still in this assay, the particulars now being: Table II "Ki", symbol "*": Ki in the assay of Example 7; read-out: Ki.
As for `O=C(OCC(=O)N1CCN(C2CCC2)CC1)N1C=CC2(CC1)c1ccccc1C(=O)N2Cc1ccccc1` (centres unmarked) [Compound 906, 2-(4-cyclobutylpiperazin-1-yl)-2-oxoethyl 2-benzyl-3-oxo-2,2′,3,3′-tetrahydro-1′H-spiro[isoindole-1,4′-pyridine]-1′-carboxylate], the Ki was < 1000 nM.
For `Cc1ccc(-c2cnc(N3CCN(CC(=O)N4CCN(C5CCC5)CC4)CC3)cn2)cc1F` [Compound 922, 2-{4-[2-(4-cyclobutylpiperazin-1-yl)-2-oxoethyl]piperazin-1-yl}-5-(3-fluoro-4-methylphenyl)pyrazine], the inhibition constant Ki was < 1000 nM.
Same read-out and setting: the result for `CC(C)(C)c1ccc(-c2cnc(N3CCN(CC(=O)N4CCN(C5CCC5)CC4)CC3)cn2)cc1` [Compound 910, 2-(4-tert-butylphenyl)-5-{4-[2-(4-cyclobutylpiperazin-1-yl)-2-oxoethyl]piperazin-1-yl}pyrazine] reads < 1000 nM; that for `O=C1CCc2cc(N3CCN(C(=O)OCC(=O)N4CCN(C5CCCC5)CC4)CC3)ccc21` [Compound 909, 2-(4-cyclopentylpiperazin-1-yl)-2-oxoethyl 4-(1-oxo-2,3-dihydro-1H-inden-5-yl)piperazine-1-carboxylate], < 1000 nM.

Still in this assay, the particulars now being: Table II, "*" in Ki; assay of Example 7; read-out: Ki.
Take `CC1CCN(C(=O)c2ccc(N3CCN(CC(=O)N4CCN(C5CCC5)CC4)CC3)cc2)CC1` [Compound 649, 1-cyclobutyl-4-[(4-{4-[(4-methylpiperidin-1-yl)carbonyl]phenyl}piperazin-1-yl)acetyl]piperazine]: the inhibition constant (Ki) was < 1000 nM.
Still for that read-out and setting: the result for `CCc1ccc(-c2ccc(N3CCN(CC(=O)N4CCN(C5CCC5)CC4)CC3)cc2)cc1` [Compound 770, 1-cyclobutyl-4-{[4-(4′-ethylbiphenyl-4-yl)piperazin-1-yl]acetyl}piperazine] reads < 1000 nM.
As to `COc1ccc(-c2cccc(N3CCN(CC(=O)N4CCN(C5CCC5)CC4)CC3)c2)cc1F` [Compound 749, 1-cyclobutyl-4-{[4-(3′-fluoro-4′-methoxybiphenyl-3-yl)piperazin-1-yl]acetyl}piperazine], the Ki is < 1000 nM.
In the case of `CCOc1cccc(-c2ccc(N3CCN(CC(=O)N4CCN(C5CCC5)CC4)CC3)cc2)c1` [Compound 746, 1-cyclobutyl-4-{[4-(3′-ethoxybiphenyl-4-yl)piperazin-1-yl]acetyl}piperazine], the inhibitory constant (Ki) is < 1000 nM.
In the case of `O=C(CN1CCN(c2ccc(-c3cc(Cl)ccc3Cl)cc2)CC1)N1CCN(C2CCC2)CC1` [Compound 682, 1-cyclobutyl-4-{[4-(2′,5′-dichlorobiphenyl-4-yl)piperazin-1-yl]acetyl}piperazine], the Ki was < 1000 nM.
Consider `O=C(CN1CCN(c2ccccc2F)CC1)N1CCN(C2CCC2)CC1` [Compound 708, 1-cyclobutyl-4-{[4-(2-fluorophenyl)piperazin-1-yl]acetyl}piperazine], for which the Ki is < 1000 nM.
Regarding `O=C(CN1CCN(c2ccc(-c3ccc(Cl)cc3Cl)cc2)CC1)N1CCN(C2CCC2)CC1` [Compound 675, 1-cyclobutyl-4-{[4-(2′,4′-dichlorobiphenyl-4-yl)piperazin-1-yl]acetyl}piperazine], the inhibitory constant (Ki) was < 1000 nM.

Still in this assay, the particulars now being: Table II; assay of Example 7; "*" in Ki; read-out: Ki.
`O=C(CN1CCN(c2cnc(-c3cccc(F)c3F)cn2)CC1)N1CCN(C2CCC2)CC1` [Compound 966, 2-{4-[2-(4-cyclobutylpiperazin-1-yl)-2-oxoethyl]piperazin-1-yl}-5-(2,3-difluorophenyl)pyrazine]: the Ki was < 1000 nM.
`O=C(O)c1ccc(N2CCN(CC(=O)N3CCN(C4CCC4)CC3)CC2)cc1` [Compound 1120, 4-{1-[2-(4-cyclobutylpiperazin-1-yl)-2-oxoethyl]piperazin-1-yl}benzoic acid]: the inhibitory constant (Ki) was < 1000 nM.
The same measure, in the same setting: the result for `O=C(CN1CCN(c2cnc(-c3cccc4c3oc3ccccc34)cn2)CC1)N1CCN(C2CCC2)CC1` [Compound 956, 2-{4-[2-(4-cyclobutylpiperazin-1-yl)-2-oxoethyl]piperazin-1-yl}-5-dibenzo[b,d]furan-4-ylpyrazine] reads < 1000 nM.
In the case of `Cc1cc(-c2ccc(N3CCN(CC(=O)N4CCN(C5CCC5)CC4)CC3)nn2)ccc1F` [Compound 1010, 3-{4-[2-(4-cyclobutylpiperazin-1-yl)-2-oxoethyl]piperazin-1-yl}-6-(4-fluoro-3-methylphenyl)pyridazine], the Ki is < 1000 nM.
Take `O=C(CN1CCN(c2ccc(-c3cccc(F)c3F)nn2)CC1)N1CCN(C2CCC2)CC1` [Compound 1053, 3-{4-[2-(4-cyclobutylpiperazin-1-yl)-2-oxoethyl]piperazin-1-yl}-6-(2,3-difluorophenyl)pyridazine]: the Ki is < 1000 nM.
Still for that read-out and setting: the result for `O=C(CN1CCN(c2ccc(Cl)nn2)CC1)N1CCN(C2CCC2)CC1` [Compound 1087, 3-chloro-6-{4-[2-(4-cyclobutylpiperazin-1-yl)-2-oxoethyl]piperazin-1-yl}pyridazine] reads < 1000 nM.
As to `CCOc1ccccc1-c1cnc(N2CCN(CC(=O)N3CCN(C4CCC4)CC3)CC2)cn1` [Compound 955, 2-{4-[2-(4-cyclobutylpiperazin-1-yl)-2-oxoethyl]piperazin-1-yl}-5-(2-ethoxyphenyl)pyrazine], the Ki is < 1000 nM.

The assay is the same for the next values; noted with them: assay of Example 7; "*" in Ki of Table II; read-out: Ki.
With `O=C(NC1CCN(CC(=O)N2CCN(C3CCC3)CC2)C1)C1CCCCC1` (centres unmarked) [Compound 1256, N-{1-[2-(4-cyclobutylpiperazin-1-yl)-2-oxoethyl]pyrrolidin-3-yl} cyclohexanecarboxamide], the inhibition constant Ki is < 1000 nM.
`O=C(OCc1ccccc1)c1cccc(N2CCN(CC(=O)N3CCN(C4CCC4)CC3)CC2)c1` [Compound 1193, benzyl 3-{4-[2-(4-cyclobutylpiperazin-1-yl)-2-oxoethyl]piperazin-1-yl}benzoate]: the inhibitory constant (Ki) was < 1000 nM.
On to `CCCCNC(=O)c1ccc(N2CCN(CC(=O)N3CCN(C4CCC4)CC3)CC2)cc1` [Compound 1264, N-butyl-4-{4-[2-(4-cyclobutylpiperazin-1-yl)-2-oxoethyl]piperazin-1-yl}benzamide], for which the Ki was < 1000 nM.
As for `CCC(C)CC(=O)NC1CCN(CC(=O)N2CCN(C3CCC3)CC2)C1` (centres unmarked) [Compound 1251, N-{1-[2-(4-cyclobutylpiperazin-1-yl)-2-oxoethyl]pyrrolidin-3-yl}-3-methylpentanamide], the inhibition constant Ki is < 1000 nM.

Still in this assay, the particulars now being: assay of Example 7; symbol * in column headed Ki of Table II; read-out: Ki.
Regarding `O=C(CN1CCC2(CC1)C(=O)N(c1ccccn1)c1ccccc12)N1CCN(C2CCC2)CC1` [Compound 424, 1′-[2-(4-cyclobutylpiperazin-1-yl)-2-oxoethyl]-1-pyridin-2-ylspiro[indole-3,4′-piperidin]-2(1H)-one], the inhibitory constant (Ki) was < 1000 nM.
On the same count and under the same terms, the result for `CCC(C)N1CCN(C(=O)CN2CCN(c3ccc(Br)c(OC)c3)CC2)CC1` (centres unmarked) [Compound 337, 1-(4-bromo-3-methoxyphenyl)-4-[2-(4-sec-butylpiperazin-1-yl)-2-oxoethyl]piperazine] reads < 1000 nM.
